From patent publication US6723567B1, “Screening method for apoptosis and necrosis” (Aponetics Ltd., priority 1998, dated 2004)
Entries after “also recorded” stand apart in the source; their conditions may differ. Numbered stars: 1 amine (or outer) side, 2 acyl side, 3 side chain; on linkers, the order of the positions; unused ones are H or OH. Bridge positions count the residues as written; N and C are the ends. Square brackets hold non-standard residues; d marks the D form. Peptide text beside a SMILES is read from it. I, II: the chains in the order shown. Actinocin(9to1) = Cc1c2oc3c(C)ccc(C(=O)[*:1])c3nc-2c(C(=O)[*:2])c(N)c1=O; NMeV = CN[C@H](C(=O)O)C(C)C; Sar = CNCC(=O)O

B1: recombinant human TRAIL: TNF-related apoptosis inducing ligand, a known cell death inducer in Jurkat cells (protein, UniProt P50591 1-281, looked up)
Tumor necrosis factor ligand …: MAMMEVQGGPSLGQTCVLIVIFTVLLQSLCVAVTYVYFTNELKQMQDKYSKSGIACFLKEDDSYWDPNDEESMNSPCWQVKWQLRQLVRKMILRTSEETISTVQEKQQNISPLVRERGPQRVAAHITGTRGRSNTLSSPNSKNEKALGRKINSWESSRSGHSFLSNLHLRNGELVIHEKGFYYIYSQTYFRFQEEIKENTKNDKQMVQYIYKYTSYPDPILLMKSARNSCWSKDAEYGLYSIYQGGIFELKENDRIFVSVTNEHLIDMDHEASFFGAFLVG

Key:
A20GFP = assay: ActD/CHX interference with the GFP apoptosis assay in A20GFP; assay type: cell-based, murine; details: for inhibition of sFasL SN induced apoptosis: 5 μg/ml ActD and/or 10 μg/ml CHX with 100 μl sFasL SN, 10 hours; for fluorescence intensity / fluorescing capacity of A20GFP: 5 μg/ml ActD and/or 10 μg/ml CHX, 10 hours at 37° C.
Description: To find out whether the fluorescence of A20GFP and the GFP apoptosis assay as described in example 7 is dependent on the de novo transcription and protein synthesis, Act D (pharmacy of the University Hospital, Basel), a RNA synthesis inhibitor, and Cycloheximide (Sigma), a protein synthesis inhibitor, were tested in our experimental protocol. After washing A20GFP cells with PBS, 250000 cells were aliquoted in FACS-tubes and incubated with:
a) Tube 1 (control): 500 μl medium complete (MC)
b) Tube 2: 100 μl sFasL SN and 400 μl MC
c) Tube 3: 500 μl MC and 5 μg/ml ActD
d) Tube 4: 400 μl MC, 100 μl sFasL SN, 5 μg/ml ActD
e) Tube 5: 500 μl MC and 10 μg/ml CHX
f) Tube 6: 400 μl MC, 100 μl sFasL SN and 10 μg/ml CHX
g) Tube 7: 500 μl MC, 5 μg/ml Act D and 10 μg/ml CHX
h) Tube 8: 400 μl MC, 100 μl sFasL SN, 5 μg/ml Act D and 10 μg/ml CHX
Tubes 1-8 (a-h) were incubated for 10 hours at 37° C. The fluorescing status of the cells was assayed at 10 hours post treatment.

JurkatGFP = assay: Apoptosis assay: induction of apoptosis in JurkatGFP by recombinant human TRAIL; assay type: cell-based
Description: This apoptosis assay has been performed with recombinant human TRAIL, a known cell death inducer in Jurkat cells. 250,000 JurkatGFP cells were aliquoted in two different FACS-tubes.
Tube 1: (control): cells were incubated with 500 μl RPMI medium,
Tube 2: cells were incubated with 25 μl recombinant human TRAIL and 475 μl RPMI medium.
Both tubes were incubated for 18 hours at 37° C. After incubation the test tubes were immediately measured without prior washing.

Molecule	inhibition of sFasL SN induced apoptosis (A20GFP)	fluorescence intensity / fluorescing capacity of A20GFP (A20GFP)	induction of apoptosis in JurkatGFP (JurkatGFP; 25 μl recombinant human TRAIL in 500 μl, 18 hours at 37° C.)	dose dependence of apoptosis induction in JurkatGFP (JurkatGFP; data not shown)
Cc1c2oc3c(C)ccc(C(=O)N[C@@H]4C(=O)N[C@H](C(C)C)C(=O)N5CCC[C@H]5C(=O)N(C)CC(=O)N(C)[C@@H](C(C)C)C(=O)O[C@@H]4C)c3nc-2c(C(=O)N[C@@H]2C(=O)N[C@H](C(C)C)C(=O)N3CCC[C@H]3C(=O)N(C)CC(=O)N(C)[C@@H](C(C)C)C(=O)O[C@@H]2C)c(N)c1=O [ActD, Actinomycin D] (I: T[dV]P[Sar][NMeV] / II: T[dV]P[Sar][NMeV]; ester I:1-I:C, II:1-II:C; linker I:N-II:N via Actinocin(9to1))	nor do they inhibit sFasL SN induced apoptosis	do not substantially interfere with the fluorescing capacity of A20GFP; also recorded: Neither a reduction of GFP-associated fluorescence		
C[C@@H]1C[C@@H]([C@H](O)CC2CC(=O)NC(=O)C2)C(=O)[C@@H](C)C1 [CHX, Cycloheximide]	nor do they inhibit sFasL SN induced apoptosis	do not substantially interfere with the fluorescing capacity of A20GFP; also recorded: Neither a reduction of GFP-associated fluorescence		
B1			induced apoptosis in JurkatGFP cells	dose dependent manner
